Results reported in publication PMC11571207, “Stereorandomized Oncocins with Preserved Ribosome Binding and Antibacterial Activity” (Journal of Medicinal Chemistry, 2024).
Converted amounts (≈) assume the structure as drawn. Non-standard residues stand in square brackets, D forms with d. Residues, ends and D or L forms follow the SMILES beside them. No end group written: not given here.

Assays:
human red blood cells = test: Hemolysis assay, minimum hemolytic concentration; conditions: for Haemolysis on hRBC, MHC: 2.5% human red blood cells (final) in 10 mM phosphate, 150 mM NaCl, pH 7.4, 25 °C, 4 h, visual inspection; for MHC human red blood cells: supplement CSV
S. aureus COL (MRSA) = test: microbe, parasite or virus in culture; conditions: for MIC S. aureus, 12.5% MHB / MIC S. aureus, Full MHB: S. aureus COL (MRSA), 16–20 h at 37 °C; for MIC S. aureus, 12.5% MHB: 12.5% Müller–Hinton medium; for MIC S. aureus, Full MHB: full Müller–Hinton medium; for MIC S. aureus COL (MRSA): supplement CSV
How it was run: (§1)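 Read-out was visible growth after MTT addition, the MIC being the lowest inhibitory peptide concentration. Bacteria grown to log phase in LB were exposed in MH medium to peptide from 64 μg/mL in twofold dilutions for 15-18h at 37°C.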

A. baumannii ATCC19606 = test: microbe, parasite or virus in culture; conditions: for MIC A. baumannii, 12.5% MHB / MIC A. baumannii, Full MHB: A. baumannii ATCC19606, 16–20 h at 37 °C; for MIC A. baumannii, 12.5% MHB: 12.5% Müller–Hinton medium; for MIC A. baumannii, Full MHB: full Müller–Hinton medium; for MIC A. baumannii ATCC19606: supplement CSV
How it was run: as §1

K. pneumoniae NCTC 418 = test: microbe, parasite or virus in culture; conditions: for MIC K. pneumoniae, 12.5% MHB / MIC K. pneumoniae, Full MHB: K. pneumoniae NCTC 418, 16–20 h at 37 °C; for MIC K. pneumoniae, 12.5% MHB: 12.5% Müller–Hinton medium; for MIC K. pneumoniae, Full MHB: full Müller–Hinton medium; for MIC K. pneumoniae NCTC418: supplement CSV
How it was run: as §1

E. coli W3110 = test: microbe, parasite or virus in culture; conditions: for MIC E. coli, 12.5% MHB / MIC E. coli, Full MHB: E. coli W3110, 16–20 h at 37 °C, broth microdilution; for MIC E. coli, 12.5% MHB: 12.5% Müller–Hinton medium; for MIC E. coli, Full MHB: full Müller–Hinton medium; for MIC E. coli W3110: supplement CSV
How it was run: as §1

P. aeruginosa PAO1 = test: microbe, parasite or virus in culture; conditions: for MIC P. aeruginosa, 12.5% MHB / MIC P. aeruginosa, Full MHB: P. aeruginosa PAO1, 16–20 h at 37 °C; for MIC P. aeruginosa, 12.5% MHB: 12.5% Müller–Hinton medium; for MIC P. aeruginosa, Full MHB: full Müller–Hinton medium; for MIC P. aeruginosa PAO1: supplement CSV
How it was run: as §1

Compound	Haemolysis on hRBC, MHC (human red blood cells) [µg/mL]	MHC human red blood cells (human red blood cells) [µg/mL]	MIC S. aureus, 12.5% MHB (S. aureus COL (MRSA))	MIC S. aureus, Full MHB (S. aureus COL (MRSA))	MIC S. aureus COL (MRSA) (S. aureus COL (MRSA); 12.5% MH pH 7.4) [µg/mL]	MIC S. aureus COL (MRSA) (S. aureus COL (MRSA); full MH pH 7.4) [µg/mL]	MIC A. baumannii, 12.5% MHB (A. baumannii ATCC19606) [µg/mL]	MIC A. baumannii, Full MHB (A. baumannii ATCC19606) [µg/mL]	MIC A. baumannii ATCC19606 (A. baumannii ATCC19606; 12.5% MH pH 7.4) [µg/mL]	MIC A. baumannii ATCC19606 (A. baumannii ATCC19606; full MH pH 7.4) [µg/mL]	MIC K. pneumoniae, 12.5% MHB (K. pneumoniae NCTC 418) [µg/mL]	MIC K. pneumoniae, Full MHB (K. pneumoniae NCTC 418) [µg/mL]	MIC K. pneumoniae NCTC418 (K. pneumoniae NCTC 418; 12.5% MH pH 7.4) [µg/mL]	MIC K. pneumoniae NCTC418 (K. pneumoniae NCTC 418; full MH pH 7.4) [µg/mL]	MIC E. coli, 12.5% MHB (E. coli W3110) [µg/mL]	MIC E. coli, Full MHB (E. coli W3110) [µg/mL]	MIC E. coli W3110 (E. coli W3110; 12.5% MH pH 7.4) [µg/mL]	MIC E. coli W3110 (E. coli W3110; full MH pH 7.4) [µg/mL]	MIC P. aeruginosa, 12.5% MHB (P. aeruginosa PAO1) [µg/mL]	MIC P. aeruginosa, Full MHB (P. aeruginosa PAO1) [µg/mL]	further results
CC[C@H](C)[C@H](NC(=O)[C@H](CCCNC(=N)N)NC(=O)[C@H](CCCNC(=N)N)NC(=O)[C@@H]1CCCN1C(=O)[C@@H]1CCCN1C(=O)[C@H](CCCNC(=N)N)NC(=O)[C@H]1CCCN1C(=O)[C@H](CCCNC(=N)N)NC(=O)[C@@H]1CCCN1C(=O)[C@H](CC(C)C)NC(=O)[C@H](Cc1ccc(O)cc1)NC(=O)[C@@H]1CCCN1C(=O)[C@@H]1CCCN1C(=O)[C@H](CCCCN)NC(=O)[C@H](CC(=O)O)NC(=O)[C@@H](N)C(C)C)C(=O)N[C@@H](Cc1ccc(O)cc1)C(=O)N[C@@H](CC(N)=O)C(=O)N[C@@H](CCCNC(=N)N)C(N)=O [DP10-Onc] (H-VDKPPYLPR[dP]RPPRRIYNR-NH2)	>1000	>1000	>64 / >64 μg/mL	>64 / >64 μg/mL	>64	>64	8 (≈ 3.35 µM)	64 (≈ 26.8 µM)	8 (≈ 3.35 µM)	64 (≈ 26.8 µM)	4 (≈ 1.67 µM)	32 (≈ 13.4 µM)	4 (≈ 1.67 µM)	32 (≈ 13.4 µM)	4 (≈ 1.67 µM)	16 (≈ 6.69 µM)	4 (≈ 1.67 µM)	16 (≈ 6.69 µM)	16 (≈ 6.69 µM)	> 64	MIC P. aeruginosa PAO1 (P. aeruginosa PAO1; 12.5% MH pH 7.4): 16 µg/mL (≈ 6.69 µM); MIC P. aeruginosa PAO1 (P. aeruginosa PAO1; full MH pH 7.4): >64 µg/mL
VDKPPYLPRPRPPRRIYNR [sr12Cterm-Onc] (VDKPPYLPRPRPPRRIYNR-NH2; also: residues 8-19 stereorandomized (1:1 L/D mixture))	>1000	>1000	>64 / 64 μg/mL	>64 / 64 μg/mL	64	>64	8	32	8	32	8	16	8	16	8	16	8	16	8	> 64	MIC P. aeruginosa PAO1 (P. aeruginosa PAO1; 12.5% MH pH 7.4): 8 µg/mL; MIC P. aeruginosa PAO1 (P. aeruginosa PAO1; full MH pH 7.4): >64 µg/mL
CC[C@@H](C)[C@@H](NC(=O)[C@@H](CCCNC(=N)N)NC(=O)[C@@H](CCCNC(=N)N)NC(=O)[C@H]1CCCN1C(=O)[C@H]1CCCN1C(=O)[C@@H](CCCNC(=N)N)NC(=O)[C@@H]1CCCN1C(=O)[C@H](CCCNC(=N)N)NC(=O)[C@@H]1CCCN1C(=O)[C@H](CC(C)C)NC(=O)[C@H](Cc1ccc(O)cc1)NC(=O)[C@@H]1CCCN1C(=O)[C@@H]1CCCN1C(=O)[C@H](CCCCN)NC(=O)[C@H](CC(=O)O)NC(=O)[C@@H](N)C(C)C)C(=O)N[C@H](Cc1ccc(O)cc1)C(=O)N[C@H](CC(N)=O)C(=O)N[C@H](CCCNC(=N)N)C(N)=O [D9Cterm-Onc] (H-VDKPPYLPRP[dR][dP][dP][dR][dR][dI][dY][dN][dR]-NH2)	>1000	>1000	>64 / >64 μg/mL	>64 / >64 μg/mL	>64	>64	4 (≈ 1.67 µM)	16 (≈ 6.69 µM)	4 (≈ 1.67 µM)	16 (≈ 6.69 µM)	2 (≈ 0.837 µM)	4 (≈ 1.67 µM)	2 (≈ 0.837 µM)	4 (≈ 1.67 µM)	2 (≈ 0.837 µM)	4 (≈ 1.67 µM)	2 (≈ 0.837 µM)	4 (≈ 1.67 µM)	4 (≈ 1.67 µM)	64 (≈ 26.8 µM)	MIC P. aeruginosa PAO1 (P. aeruginosa PAO1; 12.5% MH pH 7.4): 4 µg/mL (≈ 1.67 µM); MIC P. aeruginosa PAO1 (P. aeruginosa PAO1; full MH pH 7.4): 64 µg/mL (≈ 26.8 µM)
CC[C@H](C)[C@H](NC(=O)[C@H](CCCNC(=N)N)NC(=O)[C@H](CCCNC(=N)N)NC(=O)[C@@H]1CCCN1C(=O)[C@@H]1CCCN1C(=O)[C@H](CCCNC(=N)N)NC(=O)[C@@H]1CCCN1C(=O)[C@H](CCCNC(=N)N)NC(=O)[C@H]1CCCN1C(=O)[C@H](CC(C)C)NC(=O)[C@H](Cc1ccc(O)cc1)NC(=O)[C@@H]1CCCN1C(=O)[C@@H]1CCCN1C(=O)[C@H](CCCCN)NC(=O)[C@H](CC(=O)O)NC(=O)[C@@H](N)C(C)C)C(=O)N[C@@H](Cc1ccc(O)cc1)C(=O)N[C@@H](CC(N)=O)C(=O)N[C@@H](CCCNC(=N)N)C(N)=O [DP8-Onc] (H-VDKPPYL[dP]RPRPPRRIYNR-NH2)	>1000	>1000	>64 / 64 μg/mL	>64 / 64 μg/mL	64 (≈ 26.8 µM)	>64	16 (≈ 6.69 µM)	> 64	16 (≈ 6.69 µM)	>64	16 (≈ 6.69 µM)	> 64	16 (≈ 6.69 µM)	>64	4 (≈ 1.67 µM)	32 (≈ 13.4 µM)	4 (≈ 1.67 µM)	32 (≈ 13.4 µM)	16 (≈ 6.69 µM)	> 64	MIC P. aeruginosa PAO1 (P. aeruginosa PAO1; 12.5% MH pH 7.4): 16 µg/mL (≈ 6.69 µM); MIC P. aeruginosa PAO1 (P. aeruginosa PAO1; full MH pH 7.4): >64 µg/mL
